Experimental data from patent US9539223B2, “Methods for treating bacterial infections” (Neoculi Pty Ltd., priority 2013, dated 2017).
Where “and” joins values, the source holds several entries; their conditions need not be identical. Identical values can stand only once.

Experiments:
S. aureus ATCC 49775 = test: Time-kill assays; format: cell-based, Staphylococcus aureus
Procedure: Bactericidal activity in macrodilution assays was identified as a 3-log10 decrease from the initial inoculum size. Bacteria were cultured overnight at 37° C. on SBA. Colonies were suspended in broth and the turbidity was adjusted to a 0.5 McFarland standard to obtain a bacterial suspension of ˜10^5-CFU/ml. Bacterial suspensions were incubated at 37° C. with shaking. Aliquots were removed at 0-, 1-, 2-, 4-, 8-, 12-, and 24-h after antimicrobial addition, diluted, plated onto SBA and incubated for 48-h at 37° C. for viable count determination. Turbidimetric growth curves for S. aureus were obtained for Microtiter plate assays by monitoring optical density changes using a Bio-Rad Benchmark Plus microplate spectrophotometer at 600 nm. Optical densities were measured at 0-, 1-, 2-, 4-, 8-, 12, and 24-h after antimicrobial addition.

[1] = tested on: RNA synthesis in S. aureus ATCC 29213; test: RNA synthesis, [3H] uridine incorporation; format: cell-based, Staphylococcus aureus; conditions: 0.25 to 8-fold the MIC
Procedure: Cells were grown at 35° C. overnight on Trypticase Soy agar. A colony from the plate was used to inoculate 10 ml of Mueller Hinton broth II (MHBII), and the culture was grown to early exponential growth phase (OD600=0.2 to 0.3) while incubating in a shaker at 35° C. and 200 rpm.
When cells reached early exponential phase, 100 μl of culture was added to triplicate wells containing various concentrations of test compound or control antibiotics (5 μl) at 20× the final concentration in 100% DMSO. A 5% DMSO treated culture served as the “no drug” control for all experiments. Cells were added in MHBII at 105% to account for the volume of drug added to each reaction or in M9 minimal medium for protein synthesis reactions. Following 15 min incubation at room temperature, either [3H] thymidine (DNA synthesis), [3H] uridine (RNA synthesis) or [3H] leucine (protein synthesis) was added at 0.5-1.0 μCi per reaction, depending on the experiment. Reactions were allowed to proceed at room temperature for 15-30 min and then stopped by adding 12 μl of cold 5% trichloroacetic acid (TCA) or 5% TCA/2% casamino acids (protein synthesis only). […] After washing three times with 5 ml of cold 5% TCA, the filters were rinsed two times with 5 ml 100% ethanol, allowed to dry, and then counted using a Beckman LS3801 liquid scintillation counter.

E. faecalis USA01 = test: MBC test (CLSI), non-VRE E. faecalis isolate
S. aureus KC01 and MK01 = test: MBC test (CLSI), non-MRSA S. aureus isolates
[2] = Precipitation of NCL812 in assay media; format: physicochemical
[3] = tested on: Staphylococcus pseudintermedius; test: MBC testing (CLSI), S. pseudintermedius isolates; format: cell-based
Procedure: After the MICs were determined, the minimum bactericidal concentrations were performed to determine if these compounds are bacteriostatic or bacteriocidal.

Question: What does the source list for N=C(N/N=C/c1ccc(Cl)cc1)N/N=C/c1ccc(Cl)cc1 [NCL812, 1,2-bis[(E)-(4-chlorophenyl)methylideneamino]guanidine]?
Answer: growth in microdilution assay (S. aureus ATCC 49775; 1× and 4× the MIC, up to 24-h): no visible bacterial growth; remained bactericidal until (S. aureus ATCC 49775; 10-ml macrodilution, 1× and 4× the MIC, after antimicrobial addition): 8 to 12 h; bacterial regrowth observed at (S. aureus ATCC 49775; after antimicrobial addition): 12 h; susceptibility of test bacteria after time-kill exposure (S. aureus ATCC 49775; following harvesting, washing and MIC testing): remained susceptible; inhibition of RNA synthesis [1]: very similar to the DNA synthesis study; MBC test: Number of Bacteria Growing after 24 hours per ml of sample (E. faecalis USA01; 4 μg/ml): 488 CFU/ml; MBC test: growth on Sheep Blood Agar (E. faecalis USA01; 4 μg/ml): +; MBC test: growth on Sheep Blood Agar (E. faecalis USA01; 8 μg/ml): +; MBC test: growth on Sheep Blood Agar (E. faecalis USA01; 16 μg/ml): +; MBC test: Number of Bacteria Growing after 24 hours per ml of sample (E. faecalis USA01; 32 μg/ml): 7 CFU/ml; MBC test: growth on Sheep Blood Agar (E. faecalis USA01; 32 μg/ml): +; MBC test: Number of Bacteria Growing after 24 hours per ml of sample (E. faecalis USA01; 64 μg/ml): 1 CFU/ml; MBC test: growth on Sheep Blood Agar (E. faecalis USA01; 64 μg/ml): +; MBC test: growth on Sheep Blood Agar (E. faecalis USA01; […]): +; MBC test: growth on Sheep Blood Agar (S. aureus KC01 and MK01; S. aureus KC01, 2 μg/ml): +; MBC test: growth on Sheep Blood Agar (S. aureus KC01 and MK01; S. aureus KC01, 4 μg/ml): 0 and +; MBC test: growth on Sheep Blood Agar (S. aureus KC01 and MK01; S. aureus KC01, 8 μg/ml): 0 and +; MBC test: growth on Sheep Blood Agar (S. aureus KC01 and MK01; S. aureus KC01, 16 μg/ml): 0; MBC test: growth on Sheep Blood Agar (S. aureus KC01 and MK01; S. aureus KC01, 32 μg/ml): 0; MBC test: growth on Sheep Blood Agar (S. aureus KC01 and MK01; S. aureus KC01, 64 μg/ml): 0; MBC test: growth on Sheep Blood Agar (S. aureus KC01 and MK01; S. aureus KC01, […]): 0; MBC test: Number of Bacteria Growing after 24 hours per ml of sample (S. aureus KC01 and MK01; S. aureus MK01, 2 μg/ml): 5 CFU/ml; MBC test: growth on Sheep Blood Agar (S. aureus KC01 and MK01; S. aureus MK01, 2 μg/ml): 0; MBC test: growth on Sheep Blood Agar (S. aureus KC01 and MK01; S. aureus MK01, 4 μg/ml): 0; MBC test: growth on Sheep Blood Agar (S. aureus KC01 and MK01; S. aureus MK01, 8 μg/ml): 0; MBC test: growth on Sheep Blood Agar (S. aureus KC01 and MK01; S. aureus MK01, 16 μg/ml): 0 (N) and 0; MBC test: growth on Sheep Blood Agar (S. aureus KC01 and MK01; S. aureus MK01, 32 μg/ml): 0 (N) and 0; MBC test: growth on Sheep Blood Agar (S. aureus KC01 and MK01; S. aureus MK01, 64 μg/ml): 0 (N) and 0; Precipitation of NCL812 observed at ([2]; MIC plates in Mueller Hinton II Broth without inoculum): ≥ 8 µg/mL; precipitation observed at ([2]; Mueller Hinton broth II (DNA and RNA synthesis assays), MIC […] μg/ml): 4 to 8 fold the MIC; activity based on minimal bactericidal concentrations (MBC) [3]: bactericidal
